The record followed here is US12679843B2, “Pyrrolopyrimidine amines as complement inhibitors” (BioCryst Pharmaceuticals, Inc., priority 2020, dated 2026).

Where only a bound is given, the exact number is not on record here.

The target in the experiment is Factor D (Homo sapiens, UniProt P00746). As to the kind of experiment: Factor D esterolytic assay (Z-Lys-SBzl thioester substrate, DTNB, 405 nm). Format: biochemical. The following applies: substrate Z-Lys-SBzl 1.29 mM, 100 mM HEPES, 500 mM NaCl, pH 7.5, 10% DMSO, tested a minimum of three times. As for the experimental part: The IC50 value of a compound (i.e., the concentration of the compound that inhibits 50% of the enzymatic activity) was calculated according to the procedure reported in U.S. Pat. No. 6,653,340 B1, e.g., column 74 (incorporated by reference).
Factor D, sequence (P00746 26-253): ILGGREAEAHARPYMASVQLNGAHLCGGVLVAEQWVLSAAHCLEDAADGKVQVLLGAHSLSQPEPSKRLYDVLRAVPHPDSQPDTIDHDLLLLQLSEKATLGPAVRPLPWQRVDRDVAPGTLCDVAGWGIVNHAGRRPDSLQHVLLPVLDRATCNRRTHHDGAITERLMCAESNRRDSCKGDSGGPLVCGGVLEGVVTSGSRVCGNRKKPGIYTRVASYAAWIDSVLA
Specifically, the compounds were dissolved in a stock solution of DMSO at 10.0 or 100 mM. A portion of this stock solution was added to assay buffer in a final volume of 50 μL. Controls included buffer alone and enzyme solutions to which DMSO was added. Substrate was added to the reaction wells immediately or after incubation at room temperature. The reaction rates were measured spectrophotometrically by the generation of product at 405 nm for 600 sec. Background absorbance at 690 nm was measured and subtracted from the absorbance at 405 nm for each well.
The reaction rate for enzyme alone was compared to the rate of enzyme in the presence of inhibitor and the percent inhibition was calculated as shown below: Percent Inhibition=[Rate without inhibitor−Rate with inhibitor)/(Rate without inhibitor)]−100 Factor D Esterolytic Assay:
An established esterolytic assay for the measurement of Factor D activity and inhibition of Factor D activity was used (Kam, C. M.; McRae, B. J.; Harper, J. W.; Niemann, M. A.; Volanakis, J. E.; Powers, J. C. Human complement proteins D. C2, and B Active site mapping with peptide thioester substrates. J Biol. Chem. 1987, 262, 3444-3451). For this assay Z-Lys-SBzl, 1.29 mM (Kim, S.; Narayana, S. V. L; Volanakis, J. E. Mutational analysis of the substrate binding site of human complement Factor D. Biochemistry, 1994, 33, 14393-14399) was used as the substrate for Factor D ([…]). Hydrolysis of this compound by Factor D liberated a free sulfhydryl group which is then reacted with 5,5′-dithiobis(2-nitrobenzoic acid) producing an intense yellow color (Habeeb, A. F. S. A. Reaction of protein sulfhydryl groups with Ellman's Reagent. Methods in Enzymol. 1976, 25, 457-464). The assays were performed in 96 well microtiter plates and rates of hydrolysis were monitored at 405 nm on a Biotek Synergy H1 plate reader. Hydrolysis rates were reported as change in mOD/min. The assay was conducted in 100 mM HEPES, 500 mM NaCl, pH 7.5 containing 10% DMSO in a final volume of 50 μL per well.
An IC50, a compound concentration which inhibits 50% of the enzymatic activity, was calculated. Compounds in the examples were tested a minimum of three times.
In general, IC50 refers to the midpoint of a concentration-inhibition curve. With `Nc1ncnc2c1ncn2CC(=O)N1[C@@H]2C[C@@H]2C[C@H]1C(=O)N[C@@H]1C[C@H]1c1ccccc1Cl` [Compound 98b, (1R,3S,5R)-2-(2-(6-amino-9H-purin-9-yl)acetyl)-N-((1R,2S)-2-(2-chlorophenyl)cyclopropyl)-2-azabicyclo[3.1.0]hexane-3-carboxamide], the IC50 was in the range of 0.1 to 1 µM.

As for `COc1cccc(-c2cc(C)c3c(c2)c2c(N)ncnc2n3CC(=O)N2[C@H](C(=O)Nc3cccc(Br)n3)C[C@@]3(C)C[C@@H]23)c1` [Compound 342a, (1R,3S,5R)-2-(2-(4-amino-6-(3-methoxyphenyl)-8-methyl-9H-pyrimido[4,5-b]indol-9-yl)acetyl)-N-(6-bromopyridin-2-yl)-5-methyl-2-azabicyclo[3.1.0]hexane-3-carboxamide], the half-inhibitory concentration (IC50) was < 0.1 µM.

Regarding `CNC(=O)Nc1ccc2c(c1)c1c(N)ncnc1n2CC(=O)N1[C@@H]2C[C@@H]2C[C@H]1C(=O)Nc1cccc(Br)n1` [Compound 297d, (1R,3S,5R)-2-(2-(4-amino-6-(3-methylureido)-9H-pyrimido[4,5-b]indol-9-yl)acetyl)-N-(6-bromopyridin-2-yl)-2-azabicyclo[3.1.0]hexane-3-carboxamide], the IC50 was < 0.1 µM.

As to `COc1cc2c3c(N)ncnc3n(CC(=O)N3[C@@H]4C[C@@H]4C[C@H]3C(=O)Nc3cccc(Br)n3)c2cc1F` [Compound 330f, (1R,3S,5R)-2-(2-(4-amino-7-fluoro-6-methoxy-9H-pyrimido[4,5-b]indol-9-yl)acetyl)-N-(6-bromopyridin-2-yl)-2-azabicyclo[3.1.0]hexane-3-carboxamide], the IC50 was < 0.1 µM.

For the compound `Nc1ccc2c3c(N)ncnc3n(CC(=O)N3[C@@H]4C[C@@H]4C[C@H]3C(=O)Nc3cccc(Br)n3)c2c1` [Compound 18a, (1R,3S,5R)—N-(6-bromopyridin-2-yl)-2-(2-(4,7-diamino-9H-pyrimido[4,5-b]indol-9-yl)acetyl)-2-azabicyclo[3.1.0]hexane-3-carboxamide], the IC50 was < 0.1 µM.

In the case of `C[C@@]1(F)C[C@@H](C(=O)Nc2cccc(Br)n2)N(C(=O)Cn2c3ccc(C(F)(F)F)cc3c3c(N)ncnc32)C1` [Compound 207b, (2S,4R)-1-(2-(4-amino-6-(trifluoromethyl)-9H-pyrimido[4,5-b]indol-9-yl)acetyl)-N-(6-bromopyridin-2-yl)-4-fluoro-4-methylpyrrolidine-2-carboxamide], the IC50 was < 0.1 µM.

Turning to `COC(=O)Nc1ccc2c(c1)c1c(N)ncnc1n2CC(=O)N1[C@@H]2C[C@@H]2C[C@H]1C(=O)Nc1cccc(Br)n1` [Compound 225e, methyl (4-amino-9-(2-((1R,3S,5R)-3-((6-bromopyridin-2-yl)carbamoyl)-2-azabicyclo[3.1.0]hexan-2-yl)-2-oxoethyl)-9H-pyrimido[4,5-b]indol-6-yl)carbamate], the IC50 was < 0.1 µM.

For `Nc1nc(N)c2ccn(CC(=O)N3[C@@H]4C[C@@H]4C[C@H]3C(=O)Nc3cccc(Br)n3)c2n1` [Compound 87f, (1R,3S,5R)—N-(6-bromopyridin-2-yl)-2-(2-(2,4-diamino-7H-pyrrolo[2,3-d]pyrimidin-7-yl)acetyl)-2-azabicyclo[3.1.0]hexane-3-carboxamide], the IC50 is > 1 µM.

`COc1cc2c(cc1F)c1c(N)ncnc1n2CC(=O)N1[C@@H]2C[C@@H]2C[C@H]1C(=O)Nc1cccc(Br)n1` [Compound 383g, (1R,3S,5R)-2-(2-(4-amino-6-fluoro-7-methoxy-9H-pyrimido[4,5-b]indol-9-yl)acetyl)-N-(6-bromopyridin-2-yl)-2-azabicyclo[3.1.0]hexane-3-carboxamide]: the 50% inhibitory concentration (IC50) was < 0.1 µM.

Take `Cc1cc(Br)cc2c3c(N)ncnc3n(CC(=O)N3[C@H](C(=O)Nc4cccc(Br)n4)C[C@@]4(C)C[C@@H]34)c12` [Compound 193a, (1R,3S,5R)-2-(2-(4-amino-6-bromo-8-methyl-9H-pyrimido[4,5-b]indol-9-yl)acetyl)-N-(6-bromopyridin-2-yl)-5-methyl-2-azabicyclo[3.1.0]hexane-3-carboxamide]: the IC50 is < 0.1 µM.

For the compound `C[C@@H]1C[C@@H](C(=O)NCc2cccc(Cl)c2F)N(C(=O)Cn2cnc3c(N)ncnc32)C1` [Compound 121d, (2S,4R)-1-(2-(6-amino-9H-purin-9-yl)acetyl)-N-(3-chloro-2-fluorobenzyl)-4-methylpyrrolidine-2-carboxamide], the half-maximal inhibitory concentration (IC50) is > 1 µM.

Consider `Nc1ncnc2c1ccn2CC(=O)N1[C@@H]2C[C@@H]2C[C@H]1C(=O)Nc1cccc(Br)n1` [Compound 80a, (1R,3S,5R)-2-(2-(4-amino-7H-pyrrolo[2,3-d]pyrimidin-7-yl)acetyl)-N-(6-bromopyridin-2-yl)-2-azabicyclo[3.1.0]hexane-3-carboxamide], for which the IC50 was < 0.1 µM.

As for `Cc1ccc(-c2ccc3c(c2)c2c(N)ncnc2n3CC(=O)N2[C@@H]3C[C@@H]3C[C@H]2C(=O)Nc2cccc(Br)n2)cc1` [Compound 205c, (1R,3S,5R)-2-(2-(4-amino-6-(p-tolyl)-9H-pyrimido[4,5-b]indol-9-yl)acetyl)-N-(6-bromopyridin-2-yl)-2-azabicyclo[3.1.0]hexane-3-carboxamide], the IC50 is < 0.1 µM.

`Cc1ccc(Br)nc1NC(=O)[C@@H]1C[C@@]2(C)C[C@H]2N1C(=O)Cn1ccc2c(N)ncnc21` [Compound 74a, (1R,3S,5R)-2-(2-(4-amino-7H-pyrrolo[2,3-d]pyrimidin-7-yl)acetyl)-N-(6-bromo-3-methylpyridin-2-yl)-5-methyl-2-azabicyclo[3.1.0]hexane-3-carboxamide]: the IC50 was 0.1 to 1 µM.

Take `Nc1ncnc2c1ncn2CC(=O)N1[C@@H]2C[C@@H]2C[C@H]1C(=O)NC1CCCC(Cl)(Cl)C1` (stereo partly drawn) [Compound 102b, (1R,3S,5R)-2-(2-(6-amino-9H-purin-9-yl)acetyl)-N-(3,3-dichlorocyclohexyl)-2-azabicyclo[3.1.0]hexane-3-carboxamide]: the 50% inhibitory concentration (IC50) lay in the range of 0.1 to 1 µM.

Turning to `Nc1ncnc2c1c1ccc(F)cc1n2CC(=O)N1[C@@H]2C[C@@H]2C[C@H]1C(=O)Nc1cccc(Br)n1` [Compound 33e, (1R,3S,5R)-2-(2-(4-amino-7-fluoro-9H-pyrimido[4,5-b]indol-9-yl)acetyl)-N-(6-bromopyridin-2-yl)-2-azabicyclo[3.1.0]hexane-3-carboxamide], the IC50 is < 0.1 µM.

Turning to `Cc1ccc(Br)nc1NC(=O)[C@@H]1C[C@H]2C[C@H]2N1C(=O)Cn1c2ccc(C(F)(F)F)cc2c2c(N)ncnc21` [Compound 15a, (1R,3S,5R)-2-(2-(4-amino-6-(trifluoromethyl)-9H-pyrimido[4,5-b]indol-9-yl)acetyl)-N-(6-bromo-3-methylpyridin-2-yl)-2-azabicyclo[3.1.0]hexane-3-carboxamide], the IC50 was < 0.1 µM.

Regarding `Nc1ncnc2c1c1cc(F)c(F)cc1n2CC(=O)N1[C@@H]2C[C@@H]2C[C@H]1C(=O)Nc1cccc(Br)n1` [Compound 386g, (1R,3S,5R)-2-(2-(4-amino-6,7-difluoro-9H-pyrimido[4,5-b]indol-9-yl)acetyl)-N-(6-bromopyridin-2-yl)-2-azabicyclo[3.1.0]hexane-3-carboxamide], the IC50 was < 0.1 µM.

As to `CC(C)=C(F)CNC(=O)[C@@H]1C[C@H]2C[C@H]2N1C(=O)Cn1cnc2c(N)ncnc21` [Compound 111b, (1R,3S,5R)-2-(2-(6-amino-9H-purin-9-yl)acetyl)-N-(2-fluoro-3-methylbut-2-en-1-yl)-2-azabicyclo[3.1.0]hexane-3-carboxamide], the IC50 lay in the range of 0.1 to 1 µM.

As for `CNc1ncnc2c1cnn2CC(=O)N1[C@@H]2C[C@@H]2C[C@H]1C(=O)Nc1cccc(Br)n1` [Compound 82a, (1R,3S,5R)—N-(6-bromopyridin-2-yl)-2-(2-(4-(methylamino)-1H-pyrazolo[3,4-d]pyrimidin-1-yl)acetyl)-2-azabicyclo[3.1.0]hexane-3-carboxamide], the IC50 was > 1 µM.

With `Nc1ncnc2c1c1cc(C(F)(F)F)ccc1n2CC(=O)N1[C@@H]2C[C@@H]2C[C@H]1C(=O)Nc1cccc(Br)c1F` [Compound 268b, (1R,3S,5R)-2-(2-(4-amino-6-(trifluoromethyl)-9H-pyrimido[4,5-b]indol-9-yl)acetyl)-N-(3-bromo-2-fluorophenyl)-2-azabicyclo[3.1.0]hexane-3-carboxamide], the IC50 was < 0.1 µM.

On to `C[C@@]12C[C@@H](C(=O)Nc3cccc(Br)n3)N(C(=O)Cn3ccc4c(N)ncnc43)[C@@H]1C2` [Compound 73a, (1R,3S,5R)-2-(2-(4-amino-7H-pyrrolo[2,3-d]pyrimidin-7-yl)acetyl)-N-(6-bromopyridin-2-yl)-5-methyl-2-azabicyclo[3.1.0]hexane-3-carboxamide], for which the IC50 was < 0.1 µM.
